Test results as given in paper PMC9422132, “Membrane transporters control cerebrospinal fluid formation independently of conventional osmosis to modulate intracranial pressure” (Fluids and Barriers of the CNS, 2022).

Target: T1, NBCe2 (Rattus norvegicus, UniProt Q6RI88)
T1 construct: gene Slc4a5
T1 sequence (Q6RI88 1-1112): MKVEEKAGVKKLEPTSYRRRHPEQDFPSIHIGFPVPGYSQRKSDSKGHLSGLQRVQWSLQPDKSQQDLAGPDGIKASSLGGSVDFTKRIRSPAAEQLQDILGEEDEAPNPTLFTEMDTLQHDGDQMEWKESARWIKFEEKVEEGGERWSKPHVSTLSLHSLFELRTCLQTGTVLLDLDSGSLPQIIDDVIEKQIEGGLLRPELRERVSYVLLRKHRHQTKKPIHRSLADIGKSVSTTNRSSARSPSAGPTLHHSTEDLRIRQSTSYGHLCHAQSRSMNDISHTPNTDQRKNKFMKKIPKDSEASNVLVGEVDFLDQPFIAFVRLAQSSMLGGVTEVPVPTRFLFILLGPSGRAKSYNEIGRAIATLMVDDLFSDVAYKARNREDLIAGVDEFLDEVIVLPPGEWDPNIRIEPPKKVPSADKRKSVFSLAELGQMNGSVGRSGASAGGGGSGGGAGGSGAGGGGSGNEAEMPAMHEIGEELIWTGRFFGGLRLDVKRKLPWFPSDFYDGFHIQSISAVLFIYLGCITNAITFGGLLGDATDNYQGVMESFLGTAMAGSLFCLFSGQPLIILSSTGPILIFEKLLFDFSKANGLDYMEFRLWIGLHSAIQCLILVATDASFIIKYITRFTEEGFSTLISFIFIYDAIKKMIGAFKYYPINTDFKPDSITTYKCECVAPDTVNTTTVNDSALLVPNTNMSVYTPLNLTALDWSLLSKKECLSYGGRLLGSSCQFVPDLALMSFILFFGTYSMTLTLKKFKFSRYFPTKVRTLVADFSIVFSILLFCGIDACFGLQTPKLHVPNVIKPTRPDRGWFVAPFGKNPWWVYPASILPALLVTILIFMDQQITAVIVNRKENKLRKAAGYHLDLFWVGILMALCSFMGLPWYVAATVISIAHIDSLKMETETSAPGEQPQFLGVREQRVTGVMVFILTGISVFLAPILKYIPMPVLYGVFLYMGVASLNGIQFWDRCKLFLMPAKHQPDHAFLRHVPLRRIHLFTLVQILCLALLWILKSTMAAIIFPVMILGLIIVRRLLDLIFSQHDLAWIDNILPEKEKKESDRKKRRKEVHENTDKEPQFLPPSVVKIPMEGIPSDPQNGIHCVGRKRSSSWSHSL
Assay: two-electrode voltage clamp of rat NBCe2 expressed in Xenopus laevis oocytes
Format: cell-based

IC50 [µM]	Compound
10.7 ± 0.9	Cc1ccc(CN(Cc2ccc(-c3ccccc3S(=O)(=O)NC#N)cc2)C(=O)c2ccccc2Cl)cc1 [S0859]
4.5 ± 1.8	O=S(=O)(O)c1cc(N=C=S)ccc1/C=C/c1ccc(N=C=S)cc1S(=O)(=O)O [DIDS]
